Test results published in patent US9212146B2, “Substituted pyridazinones for the treatment of tumors” (SHANGHAI INSTITUTE OF MATERIA MEDICA, CHINESE ACADEMY OF …, priority 2008, dated 2015).
Like-named read-outs stand apart in the source and are kept apart here.

System: human hepatoma cell line Bel-7402
Test: SRB proliferation assay, Bel-7402
Format: cell-based
Conditions: BEL-7402 cultivated in vitro, given as bounds, read-out: The Inhibition Activities for Human Liver Cancer Cells BEL-7402 (IC50)
Procedure: Protocol: the antineoplasmic activities in vitro of the compounds were assayed by a Sulforhodamine B (SRB) protocol. Tumor cells were cultivated at 37 under 5% CO2 in a RPMI 1640 medium or a DMEM medium (Gibco) containing 10% fetal bovine serum. Tumor cells were inoculated on a 96-well plate with a concentration of 0.4-1.0×10^4 cells per well according to the cell types. 24 hours later, the target compounds diluted 10 times were added, each compound having at least 5 concentrations. After treated by the compounds for 72 hours, the culture media were discarded, and the cells were fixed by 10% cold trichloroacetic acid, and then stained by Sulforhodamine B (SRB) solution. The uncombined SRB was washed off, and the SRB combined with protein was dissolved with Tris. OD values were recorded at 515 nm on an ELISA Reader, and the cell growth inhibition rate was calculated according to following equation: Inhibition rate=(ODcontrol−ODexperimental)/ODcontrol×100%
IC50 (50% inhibitory concentration) was calculated by using Logit method based on the inhibition rates at various concentration, and the results are shown in tables 1 and 2.
The following cell lines were used: human hepatocarcinoma cell line […]; ovarian cancer cell line SK-OV-3; human breast cancer cell line MDA-MB-231; human renal carcinoma cell line A498; colon adenocarcinoma cell line HT-29; non-small cell lung cancer cell line NCI-H460; lung adenocarcinoma cell line A549; human colon cancer cell line SW-620; human hepatoma cell line Bel-7402; human breast carcinoma cell line SK-BR-3; and human umbilical vein endothelial cells (HUVEC).

IC50 (Homo sapiens, Bel-7402, 72 h) [nM] | SMILES | further results
< 100 | CN1CCCC(COc2ccc(-c3ccc(=O)[nH]n3)cc2C(F)(F)F)C1 (stereo not shown) [YHHU-590] | –
< 100 | O=c1ccc(-c2ccc(OC3CCCCCC3)c(C(F)(F)F)c2)n[nH]1 [YHHU-598] | –
< 100 | O=C1CCCN1c1ccc(-c2ccc(=O)[nH]n2)cc1C(F)(F)F [YHHU-667] | –
< 100 | O=C1CCN(c2ccc(-c3ccc(=O)[nH]n3)cc2C(F)(F)F)CC1 [YHHU-672] | –
< 100 | O=c1ccc(-c2ccc(OC34CC5CCC(C3)C(C5)C4)c(C(F)(F)F)c2)n[nH]1 (stereo not shown) [YHHU-592] | –
– | O=c1ccc(-c2ccc(NC3CCCCC3)c(C(F)(F)F)c2)n[nH]1 [YHHU-715] | IC50 (72 hours): < 10000 nM
< 100 | Cc1ccc(-c2ccc(=O)[nH]n2)cc1C(F)(F)F [YHHU-581] | –
– | O=c1ccc(-c2ccc(OCCN3CC3)c(C(F)(F)F)c2)n[nH]1 [YHHU-771] | IC50 (Homo sapiens, 72 hours): < 100 nM
< 100 | O=c1ccc(-c2ccc(N3CCCC(O)C3)c(C(F)(F)F)c2)n[nH]1 (stereo not shown) [YHHU-753] | –
< 10 | CN(C)c1ccc(-c2ccc(=O)[nH]n2)cc1C(F)(F)F [YHHU-647] | –
< 10 | CC(C)(C)OC(=O)N1CCN(c2ccc(-c3ccc(=O)[nH]n3)cc2C(F)(F)F)CC1 [YHHU-678] | –
< 100 | O=c1ccc(-c2ccc(CCN3CCOCC3)c(C(F)(F)F)c2)n[nH]1 [YHHU-585] | –
< 100 | CCSc1ccc(-c2ccc(=O)[nH]n2)cc1C(F)(F)F [YHHU-589] | –
< 100 | CN(C)COc1ccc(-c2ccc(=O)[nH]n2)cc1C(F)(F)F [YHHU-501] | –
< 100 | O=c1ccc(-c2ccc(CO)c(C(F)(F)F)c2)n[nH]1 [YHHU-574] | –
< 100 | O=c1ccc(-c2ccc(CCN3CCCCC3)c(C(F)(F)F)c2)n[nH]1 [YHHU-575] | –
< 100 | O=c1ccc(-c2ccc(OCCC(F)(F)F)c(C(F)(F)F)c2)n[nH]1 [YHHU-586] | –
< 10 | CNc1ccc(-c2ccc(=O)[nH]n2)cc1C(F)(F)F [YHHU-758] | –
< 10 | CN(C)Cc1ccc(-c2ccc(=O)[nH]n2)cc1C(F)(F)F [YHHU-701] | –
< 10000 | O=c1ccc(-c2ccc(N3CC4CCCC4C3)c(C(F)(F)F)c2)n[nH]1 (stereo not shown) [YHHU-718] | –
< 10000 | O=c1ccc(-c2ccc(-c3ccccc3)c(C(F)(F)F)c2)n[nH]1 [YHHU-703] | –
< 100 | O=c1ccc(-c2ccc(NC3CCCC3)c(C(F)(F)F)c2)n[nH]1 [YHHU-689] | –
< 100 | CC1CCC(C(C)C)C(Oc2ccc(-c3ccc(=O)[nH]n3)cc2C(F)(F)F)C1 (stereo not shown) [YHHU-595] | –
< 100 | O=c1ccc(-c2ccc(N3CCC(CCO)CC3)c(C(F)(F)F)c2)n[nH]1 [YHHU-679] | –
< 100 | O=c1ccc(-c2ccc(Nc3ccccc3)c(C(F)(F)F)c2)n[nH]1 [YHHU-658] | –
< 100 | O=c1ccc(-c2ccc(OC3CCCC3)c(C(F)(F)F)c2)n[nH]1 [YHHU-503] | –
< 1000 | CCOC(=O)CCNc1ccc(-c2ccc(=O)[nH]n2)cc1C(F)(F)F [YHHU-769] | –

IC50 (Homo sapiens, Bel-7402, 72 h) [nM] | SMILES | further results
– | CC1CN1c1ccc(-c2ccc(=O)[nH]n2)cc1C(F)(F)F (stereo not shown) [YHHU-748] | IC50 (Homo sapiens, 72 hours): < 10 nM
< 100 | CCOc1ccc(-c2ccc(=O)[nH]n2)cc1C(F)(F)F [YHHU-578] | –
< 100 | CCC(C)(C)Oc1ccc(-c2ccc(=O)[nH]n2)cc1C(F)(F)F [YHHU-773] | –
< 100 | CSc1ccc(-c2ccc(=O)[nH]n2)cc1C(F)(F)F [YHHU-694] | –
< 1000 | CN(CCO)c1ccc(-c2ccc(=O)[nH]n2)cc1C(F)(F)F [YHHU-681] | –
– | O=c1ccc(-c2ccc(NC3CCCCC3)c(C(F)(F)F)c2)n[nH]1 [YHHU-757] | IC50 (72 hours): < 10 nM
< 10000 | O=c1ccc(-c2ccc(-n3ccnc3)c(C(F)(F)F)c2)n[nH]1 [YHHU-706] | –
< 100 | O=c1ccc(-c2ccc(OCCN3CCCC3)c(C(F)(F)F)c2)n[nH]1 [YHHU-770] | –
< 10000 | O=c1ccc(-c2ccc(C#Cc3ccc(C(F)(F)F)cc3)c(C(F)(F)F)c2)n[nH]1 [YHHU-702] | –
< 100 | CC(Oc1ccc(-c2ccc(=O)[nH]n2)cc1C(F)(F)F)N1CCCCC1 (stereo not shown) [YHHU-597] | –
< 1000 | O=c1ccc(-c2ccc(N3CCSC3)c(C(F)(F)F)c2)n[nH]1 [YHHU-670] | –
< 100 | O=c1ccc(-c2ccc(N3CCC(O)C3)c(C(F)(F)F)c2)n[nH]1 (stereo not shown) [YHHU-766] | –
< 100 | O=c1ccc(-c2ccc(OCCN3CCOCC3)c(C(F)(F)F)c2)n[nH]1 [YHHU-775] | –
< 100 | CN(C)[C@@H]1CCN(c2ccc(-c3ccc(=O)[nH]n3)cc2C(F)(F)F)C1 [YHHU-683] | –
< 10000 | O=c1ccc(-c2ccc(OC(F)(F)F)c(C(F)(F)F)c2)n[nH]1 [YHHU-707] | –
< 10 | O=c1ccc(-c2ccc(N3CCN(CCO)CC3)c(C(F)(F)F)c2)n[nH]1 [YHHU-685] | –
< 1000 | O=c1ccc(-c2ccc(NC3CCC(O)CC3)c(C(F)(F)F)c2)n[nH]1 (stereo not shown) [YHHU-711] | –
> 100 | O=c1ccc(-c2ccc(NCCO)c(C(F)(F)F)c2)n[nH]1 [YHHU-760] | –
> 1000 | CN(C)CCN(C)c1ccc(-c2ccc(=O)[nH]n2)cc1C(F)(F)F [YHHU-746] | –
< 1000 | O=C(O)[C@@H]1CC(O)CN1c1ccc(-c2ccc(=O)[nH]n2)cc1C(F)(F)F (stereo partly shown) [YHHU-666] | –
< 10000 | O=c1ccc(-c2ccc(-c3cccnc3)c(C(F)(F)F)c2)n[nH]1 [YHHU-709] | –
< 100 | CCOC(=O)C1CCN(c2ccc(-c3ccc(=O)[nH]n3)cc2C(F)(F)F)CC1 [YHHU-693] | –
< 100 | O=c1ccc(-c2ccc(NCc3ccccc3)c(C(F)(F)F)c2)n[nH]1 [YHHU-659] | –
< 100 | O=c1ccc(-c2ccc(N3CC(O)C3)c(C(F)(F)F)c2)n[nH]1 [YHHU-752] | –
< 100 | COC(CNc1ccc(-c2ccc(=O)[nH]n2)cc1C(F)(F)F)OC [YHHU-774] | –
< 10000 | O=c1ccc(-c2ccc(SCCO)c(C(F)(F)F)c2)n[nH]1 [YHHU-700] | –
< 10 | CCOC(=O)C1CCCN(c2ccc(-c3ccc(=O)[nH]n3)cc2C(F)(F)F)C1 (stereo not shown) [YHHU-671] | –

IC50 (Homo sapiens, Bel-7402, 72 h) [nM] | SMILES | further results
< 10000 | O=c1ccc(-c2ccc(OCc3ccccc3)c(C(F)(F)F)c2)n[nH]1 [YHHU-714] | –
< 10 | CC(C)Nc1ccc(-c2ccc(=O)[nH]n2)cc1C(F)(F)F [YHHU-761] | –
< 10 | CC(O)C1CCN(c2ccc(-c3ccc(=O)[nH]n3)cc2C(F)(F)F)CC1 (stereo not shown) [YHHU-751] | –
< 100 | O=c1ccc(-c2ccc(OCCOCCO)c(C(F)(F)F)c2)n[nH]1 [YHHU-582] | –
< 100 | O=c1ccc(-c2ccc(OCCBr)c(C(F)(F)F)c2)n[nH]1 [YHHU-579] | –
< 100 | O=c1ccc(-c2ccc(NCC3CCCCC3)c(C(F)(F)F)c2)n[nH]1 [YHHU-696] | –
< 100 | CC(C)CCOc1ccc(-c2ccc(=O)[nH]n2)cc1C(F)(F)F [YHHU-772] | –
< 1000 | O=C1CSC(=S)N1c1ccc(-c2ccc(=O)[nH]n2)cc1C(F)(F)F [YHHU-668] | –
< 1000 | O=c1ccc(-c2ccc(NC3CCCC(O)C3)c(C(F)(F)F)c2)n[nH]1 (stereo not shown) [YHHU-712] | –
< 10000 | O=c1ccc(-c2ccc(NC3CCCCC3O)c(C(F)(F)F)c2)n[nH]1 (stereo not shown) [YHHU-716] | –
> 1000 | Cc1ccc(Sc2ccc(-c3ccc(=O)[nH]n3)cc2C(F)(F)F)cc1 [YHHU-717] | –
– | COc1ccc(-c2ccc(=O)[nH]n2)cc1C(F)(F)F [YHHU-546] | IC50 (72 hours): < 100 nM
< 1000 | O=C1CCC(=O)N1c1ccc(-c2ccc(=O)[nH]n2)cc1C(F)(F)F [YHHU-673] | –
< 10 | CN(C)[C@H]1CCN(c2ccc(-c3ccc(=O)[nH]n3)cc2C(F)(F)F)C1 [YHHU-676] | –
– | COc1ccc(-c2ccc(=O)[nH]n2)cc1C(F)(F)F [YHHU-762] | IC50 (72 hours): < 10 nM
< 10 | O=c1ccc(-c2ccc(N3CCCCCC3)c(C(F)(F)F)c2)n[nH]1 [YHHU-747] | –
< 100 | CCOC(=O)C1CCCN1c1ccc(-c2ccc(=O)[nH]n2)cc1C(F)(F)F (stereo not shown) [YHHU-768] | –
< 10 | CC(C)N(c1ccc(-c2ccc(=O)[nH]n2)cc1C(F)(F)F)C(C)C [YHHU-688] | –
< 1000 | O=c1ccc(-c2ccc(OCC3CC3)c(C(F)(F)F)c2)n[nH]1 [YHHU-713] | –
< 100 | O=c1ccc(-c2ccc(O)c(C(F)(F)F)c2)n[nH]1 [YHHU-580] | –
< 10000 | O=c1ccc(-c2ccc(C(F)(F)F)c(C(F)(F)F)c2)n[nH]1 [YHHU-710] | –
< 100 | CC(C)C(Oc1ccc(-c2ccc(=O)[nH]n2)cc1C(F)(F)F)C(C)C [YHHU-502] | –
< 100 | O=C(O)C1CCCN(c2ccc(-c3ccc(=O)[nH]n3)cc2C(F)(F)F)C1 (stereo not shown) [YHHU-765] | –
> 1000 | CN(C)CCNc1ccc(-c2ccc(=O)[nH]n2)cc1C(F)(F)F [YHHU-745] | –
< 100 | O=c1ccc(-c2ccc(N3CCCCC3CO)c(C(F)(F)F)c2)n[nH]1 (stereo not shown) [YHHU-763] | –

SMILES | IC50 (Homo sapiens, Bel-7402, 72 h) [nM] | further results
C[C@H]1CN(c2ccc(-c3ccc(=O)[nH]n3)cc2C(F)(F)F)CCN1 [YHHU-675] | < 10 | –
C[C@@H]1CN(c2ccc(-c3ccc(=O)[nH]n3)cc2C(F)(F)F)CCN1 [YHHU-682] | < 10 | –
O=c1ccc(-c2ccc(N3CCNCC3)c(C(F)(F)F)c2)n[nH]1 [YHHU-677] | < 100 | –
